The values that follow come from US6503525B1, “Absorbent article which maintains or improves skin health” (Kimberly-Clark Worldwide, Inc., priority 1999, dated 2003).

Assay [1] relates to proteolytic activity of fecal extract. The settings on record: 0-1 mM emulsions, pH 8.0, room temperature. Here is the method: The supernatant was filtered through 0.22 micron cellulose acetate filters and stored at −80° C. until use.
Assay [2] deals with EpiDerm™ 201 synthetic skin (keratinocytes), interleukin-1 alpha release. The text has this:
The synthetic skin, EpiDerm™ 201 (MatTek Corporation, Ashland, Mass.) contains keratinocytes that release interleukin-1 alpha (IL-1 alpha) when subjected to proteases in the fecal extract. When the IL-1 alpha was released, it diffused from the skin into the fluid below the EpiDerm™. Samples of this fluid were taken and analyzed for the presence of the IL-1 alpha. Higher levels of IL-1 alpha was indicative of greater skin irritation.
Prior to application onto the EpiDerm™, the fecal extract (10.4 μL) was pre-incubated for 30 minutes at room temperature with 250 mM zinc sulfate heptahydrate in water (2.6 μL). Water only and fecal extract only samples served as controls. After application of the samples to the EpiDerm™, 25 μL aliquots were removed from the underlying media at 8, 12, and 24 hours to test for the presence of the IL-1 alpha. The aliquots were directly added to a 1.5 mL micro-centrifuge tube containing 225 μL of filtered-sterilized 20 mM Tris-HCl, pH 8.0, 1% BSA buffer and stored at −80° C. After all samples were collected, IL-1 alpha levels were quantified using the R&D Systems Interleukin-1 alpha Quantikine Kit (R&D Systems, Minneapolis, Minn.).

In assay [3] the test system is proteolytic activity of infant urine. The settings on record: 0-50 mM, pH 8.0, 37° C.
Description: The proteolytic activity of infant urine was measured using fluorescently-labeled casein.
Two (2) infant urine (100 μL) samples were added to wells of a 96 white plate (Dynex) containing 80 μL of 12.5 μg/ml solution of a fluorescent dye-labeled casein substrate (EnzChek Protease Assay Kit (E-6639)) in 100 mM Tris-HCl, pH 8.0, and allowed to incubate for 60 minutes at 37° C. […] Reaction of the infant urine with the casein substrate cleaves the fluorescent dye from the substrate. RFUs were collected using the Fluoroskan Ascent System with excitation and emission filters of 485 and 538 nm, respectively. Data were collected each minute for 60 minutes at 37° C. and rates (RFU/min) from 30-50 minutes were calculated for each zinc concentration. Using the uninhibited wells as 100% protease activity, percent of urine proteolytic activity remaining was determined for each concentration of zinc inhibitor (Inhibited Rate/Uninhibited rate* 100).
Assay [4] relates to proteolytic activity in the fecal extract. The assay can be described thus: Fecal extract protease assay with labeled casein (silk proteins). The settings on record: serial dilutions in 100 mM Tris-HCl pH 8.0, room temperature. It counts as biochemical, infant. Here is the method:
Water soluble silk protein (SERICIN, Pentapharm AG, Basel, Switzerland) and hydrolyzed silk (CROSILK 10,000, Croda, Incorporated, Parsippany, N.J.) were individually shown to inhibit proteolytic activity in the fecal extract that has been implicated to contribute to diaper rash. Serial dilutions of the neat protein and hydrolysate were performed with 100 mM Tris-HCl pH 8.0 as the diluent. The silk protein concentrations were determined using a Macro BCA Protein Assay Reagent Kit (Pierce, Rockford, Ill.).
Fecal extract was prepared as described above for the examples of silk protein and zinc compositions. […] The reaction was initiated with the addition of 100 μL of the 2 μg/ml fecal extract. […] The reaction was run for 30 min. at room temperature and rates (RFU/min) from 10-20 minutes were calculated.

`O.O.O.O.O.O.O.O=S(=O)([O-])[O-].[Zn+2]` [zinc sulfate heptahydrate]: the “inhibition of casein hydrolysis by fecal extract (FIG. 9)” value in assay [1] is “effectively inhibited the hydrolysis of casein by the fecal extract in a dose-dependent manner”. For the same compound, the “inhibition of fecal extract activity on EpiDerm, concentration series (FIG. 12)” value in assay [2] (0, 25, 50, 125 and 250 mM in 2.6 μL aliquot added to 10.4 μL fecal extract) is given as “effectively inhibits the proteolytic activity of fecal extract in a dose-dependent manner”. Besides, the “interleukin-1 alpha released into underlying media (FIG. 11)” value in assay [2] (250 mM pre-incubated 30 min with fecal extract, relative to FE+water, 8, 12 and 24 hours) is “reduced the amount of interleukin-1 alpha released into the underlying media”. For the same compound, in assay [3], the “inhibition of casein hydrolysis by infant urine (FIG. 10)” value is recorded as “effectively inhibited the hydrolysis of casein by infant urine in a dose-dependent manner”.
As for SERICIN, in assay [4], the “fecal proteolytic activity (FIG. 13)” value is recorded as “reduction of proteolytic activity with increasing concentrations”.
